The test system of one assay is SiHa. The assay is described as follows: Antiproliferative activity against human SiHa cells assessed as reduction in cell viability incubated for 72 hrs by CCK-8 assay. Type of assay: functional, cell-based.
The target of assay [1] is T1, Protein cereblon/Heat shock protein HSP 90-alpha/Heat shock protein HSP 90-beta (Homo sapiens) (UniProt P07900+P08238+Q96SW2). The assay is described as follows: Protac activity at CRBN/Hsp90 in human SiHa cells assessed as induction of Hsp90 degradation at 1 uM incubated for 10 hrs by Western blot analysis. Type of assay: cell-based.
Assay [2] addresses T2, von Hippel-Lindau disease tumor suppressor/Heat shock protein HSP 90-alpha/Heat shock protein HSP 90-beta (Homo sapiens) (UniProt P07900+P08238+P40337). Kind of assay: Protac activity at VHL/Hsp90 in human SiHa cells assessed as induction of Hsp90 degradation at 1 uM incubated for 10 hrs by Western blot analysis. Type of assay: cell-based. Background: A western blot detects proteins with antibodies after separation by electrophoresis.

Assay [3] has as its target T2, von Hippel-Lindau disease tumor suppressor/Heat shock protein HSP 90-alpha/Heat shock protein HSP 90-beta (Homo sapiens). The assay is described as follows: Protac activity at VHL/Hsp90 in human SiHa cells assessed as induction of Hsp90 degradation (causing hook effect) at > 0.1 uM incubated for 10 hrs by Western blot analysis. It is filed as cell-based.
Assay [4] addresses T1, Protein cereblon/Heat shock protein HSP 90-alpha/Heat shock protein HSP 90-beta (Homo sapiens). Kind of assay: Protac activity at CRBN/Hsp90 in human SiHa cells assessed as induction of Hsp90 degradation at 1 uM incubated for 2 hrs by Western blot analysis. It is filed as cell-based.
The target is the same in assay [5]. Kind of assay: Protac activity at CRBN/Hsp90 in human SiHa cells assessed as induction of Hsp90 degradation (causing hook effect) at > 0.1 uM incubated for 10 hrs by Western blot analysis. It is filed as cell-based.

The source made the active and inactive calls. The calls are words filed in the database; no cut-off is given here.

For orientation: IC50 means the midpoint of a concentration-inhibition curve.

T2 sequence (P08238 whole entry, looked up, other chains not shown): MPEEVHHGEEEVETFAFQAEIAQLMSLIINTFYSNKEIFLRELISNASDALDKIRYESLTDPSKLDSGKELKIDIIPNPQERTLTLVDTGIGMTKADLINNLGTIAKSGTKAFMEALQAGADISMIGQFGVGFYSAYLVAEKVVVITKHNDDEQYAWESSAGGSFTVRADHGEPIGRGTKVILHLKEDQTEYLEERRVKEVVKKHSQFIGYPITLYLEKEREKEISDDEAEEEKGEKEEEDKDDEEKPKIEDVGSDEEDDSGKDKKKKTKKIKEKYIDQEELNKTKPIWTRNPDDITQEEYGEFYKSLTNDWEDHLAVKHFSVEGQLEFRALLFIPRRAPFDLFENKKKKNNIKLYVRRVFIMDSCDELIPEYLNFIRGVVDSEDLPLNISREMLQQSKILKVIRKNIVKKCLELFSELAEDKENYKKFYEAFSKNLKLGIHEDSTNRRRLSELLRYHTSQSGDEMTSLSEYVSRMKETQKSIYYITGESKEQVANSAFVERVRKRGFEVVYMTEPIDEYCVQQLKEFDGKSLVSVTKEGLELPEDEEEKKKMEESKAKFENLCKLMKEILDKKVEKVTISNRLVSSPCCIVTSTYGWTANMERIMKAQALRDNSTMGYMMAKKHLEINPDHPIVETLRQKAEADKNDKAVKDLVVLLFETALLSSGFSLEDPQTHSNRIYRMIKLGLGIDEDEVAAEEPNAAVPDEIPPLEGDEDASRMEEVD
T2 sequence (P40337 whole entry, looked up, other chains not shown): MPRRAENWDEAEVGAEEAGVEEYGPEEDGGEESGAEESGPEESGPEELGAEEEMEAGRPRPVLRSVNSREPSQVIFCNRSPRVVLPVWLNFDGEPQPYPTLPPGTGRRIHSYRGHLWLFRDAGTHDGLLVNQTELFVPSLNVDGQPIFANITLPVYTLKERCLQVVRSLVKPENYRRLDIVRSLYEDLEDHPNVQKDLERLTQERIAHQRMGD

As to `CC1(C)CC(=O)c2c(C(F)(F)F)nn(-c3ccc(C(N)=O)c(NCCCNC(=O)COCCOCCNc4cccc5c4CN(C4CCC(=O)NC4=O)C5=O)c3)c2C1` (configuration not stated), the half-inhibitory concentration (IC50) with SiHa worked out at 7.3 µM. Moreover, the result in assay [1] was inactive.
In the case of `CC1(C)CC(=O)c2c(C(F)(F)F)nn(-c3ccc(C(N)=O)c(N[C@H]4CC[C@H](OC(=O)CNC(=O)CCCCCCCCCNc5cccc6c5CN(C5CCC(=O)NC5=O)C6=O)CC4)c3)c2C1` (some centres not stated), the IC50 in the assay with SiHa was found to be 0.14 µM.
For the compound `CC1(C)CC(=O)c2c(C(F)(F)F)nn(-c3ccc(C(N)=O)c(NCCCNC(=O)CCCCCCCCCCNc4cccc5c4CN(C4CCC(=O)NC4=O)C5=O)c3)c2C1` (configuration not stated), in the assay with SiHa, the IC50 was determined as 0.56 µM. Besides, the result in assay [1] was inactive.
Taken in the same sequence, the figures for `CC1(C)CC(=O)c2c(C(F)(F)F)nn(-c3ccc(C(N)=O)c(N[C@H]4CC[C@H](OC(=O)CNC(=O)CCCNc5cccc6c5CN(C5CCC(=O)NC5=O)C6=O)CC4)c3)c2C1` (some centres not stated) were 0.07 µM and “Active”.
Consider `Cc1ncsc1-c1ccc([C@H](C)NC(=O)[C@@H]2C[C@@H](O)CN2C(=O)[C@@H](NCCCCCCCC(=O)NCC(=O)O[C@H]2CC[C@H](Nc3cc(-n4nc(C(F)(F)F)c5c4CC(C)(C)CC5=O)ccc3C(N)=O)CC2)C(C)(C)C)cc1`, for which the IC50 in the assay on SiHa turned out to be 0.17 µM. The outcome in assay [2] was Active.
Regarding `CC1(C)CC(=O)c2c(C(F)(F)F)nn(-c3ccc(C(N)=O)c(N[C@H]4CC[C@H](NCCCCCCCCCC(=O)Nc5cccc6c5CN(C5CCC(=O)NC5=O)C6=O)CC4)c3)c2C1` (some centres not stated), in the assay on SiHa, the IC50 worked out at 5.27 µM. Moreover, the outcome in assay [1] was inactive.
For `CC1(C)CC(=O)c2c(C(F)(F)F)nn(-c3ccc(C(N)=O)c(NCCCNC(=O)CCCCCCCCCNc4cccc5c4CN(C4CCC(=O)NC4=O)C5=O)c3)c2C1` (configuration not stated) the same measures were 0.43 µM and “inactive”.
Taken in the same sequence, the figures for `CC1(C)CC(=O)c2c(C(F)(F)F)nn(-c3ccc(C(N)=O)c(N[C@H]4CC[C@H](OC(=O)CNC(=O)CCCCCNc5cccc6c5CN(C5CCC(=O)NC5=O)C6=O)CC4)c3)c2C1` (some centres not stated) were 0.46 µM and “Active”.
For `CC1(C)CC(=O)c2c(C(F)(F)F)nn(-c3ccc(C(N)=O)c(N[C@H]4CC[C@H](NC(=O)CCCCCCCCCNc5cccc6c5CN(C5CCC(=O)NC5=O)C6=O)CC4)c3)c2C1` (some centres not stated) the same measures were 0.19 µM and “inactive”.
As for `CC1(C)CC(=O)c2c(C(F)(F)F)nn(-c3ccc(C(N)=O)c(N[C@H]4CC[C@H](OC(=O)CNC(=O)CCCCNc5cccc6c5CN(C5CCC(=O)NC5=O)C6=O)CC4)c3)c2C1` (some centres not stated), the IC50 with SiHa was 0.31 µM.
Take `CC1(C)CC(=O)c2c(C(F)(F)F)nn(-c3ccc(C(N)=O)c(NCCCNC(=O)CCCCCCCNc4cccc5c4CN(C4CCC(=O)NC4=O)C5=O)c3)c2C1` (configuration not stated): the half-maximal inhibitory concentration (IC50) with SiHa turned out to be 5.52 µM. Moreover, the outcome in assay [1] was inactive.
`Cc1ncsc1-c1ccc([C@H](C)NC(=O)[C@@H]2C[C@@H](O)CN2C(=O)[C@@H](NCCOCCOCC(=O)NCC(=O)O[C@H]2CC[C@H](Nc3cc(-n4nc(C(F)(F)F)c5c4CC(C)(C)CC5=O)ccc3C(N)=O)CC2)C(C)(C)C)cc1`: in the assay with SiHa, the IC50 was determined as 0.03 µM. In addition, the result in assay [2] and in assay [3] was inactive.
In the case of `CC1(C)CC(=O)c2c(C(F)(F)F)nn(-c3ccc(C(N)=O)c(N[C@H]4CC[C@H](OC(=O)CN)CC4)c3)c2C1` [SNX 5422], in the assay with SiHa, the IC50 amounted to 0.014 µM.
On the same count and under the same terms, then `Cc1ncsc1-c1ccc([C@H](C)NC(=O)[C@@H]2C[C@@H](O)CN2C(=O)[C@@H](NCCCCCC(=O)NCC(=O)O[C@H]2CC[C@H](Nc3cc(-n4nc(C(F)(F)F)c5c4CC(C)(C)CC5=O)ccc3C(N)=O)CC2)C(C)(C)C)cc1`, with 0.66 µM.
On to `CC1(C)CC(=O)c2c(C(F)(F)F)nn(-c3ccc(C(N)=O)c(N[C@H]4CC[C@H](NC(=O)CNC(=O)CCCCCCCCCNc5cccc6c5CN(C5CCC(=O)NC5=O)C6=O)CC4)c3)c2C1` (some centres not stated), for which the half-maximal inhibitory concentration (IC50) with SiHa came to 0.75 µM. The result in assay [1] was inactive.
For `CC1(C)CC(=O)c2c(C(F)(F)F)nn(-c3ccc(C(N)=O)c(NCCCNC(=O)CCCCCNc4cccc5c4CN(C4CCC(=O)NC4=O)C5=O)c3)c2C1` (configuration not stated) the same measures were 9.61 µM and “inactive”.
Take `CN1C(=O)CCC(N2Cc3c(NCCCCCCCC(=O)NCC(=O)O[C@H]4CC[C@H](Nc5cc(-n6nc(C(F)(F)F)c7c6CC(C)(C)CC7=O)ccc5C(N)=O)CC4)cccc3C2=O)C1=O` (some centres not stated): the outcome in assay [4] was inactive.
As to `CC1(C)CC(=O)c2c(C(F)(F)F)nn(-c3ccc(C(N)=O)c(N[C@H]4CC[C@H](OC(=O)CNC(=O)COCCOCCNc5cccc6c5C(=O)N(C5CCC(=O)NC5=O)C6=O)CC4)c3)c2C1` (some centres not stated), the concentration for half-maximal inhibition (IC50) in the assay on SiHa amounted to 0.04 µM. Further, the result in assay [1] and in assay [5] was inactive.
With `CC1(C)CC(=O)c2c(C(F)(F)F)nn(-c3ccc(C(N)=O)c(N[C@H]4CC[C@H](OC(=O)CNC(=O)CCCCCCNc5cccc6c5CN(C5CCC(=O)NC5=O)C6=O)CC4)c3)c2C1` (some centres not stated), the IC50 in the assay on SiHa amounted to 0.24 µM. The result in assay [1] was Active.
Regarding `Cc1ncsc1-c1ccc([C@H](C)NC(=O)[C@@H]2C[C@@H](O)CN2C(=O)[C@@H](NCCCCCCCCCC(=O)NCC(=O)O[C@H]2CC[C@H](Nc3cc(-n4nc(C(F)(F)F)c5c4CC(C)(C)CC5=O)ccc3C(N)=O)CC2)C(C)(C)C)cc1`, in the assay on SiHa, the IC50 is 0.23 µM. For the same compound, in assay [2], the result was Active.
